2 compounds from patent US20150148234A1, “HERBICIDE-RESISTANT SUNFLOWER PLANTS WITH MULTIPLE HERBICIDE RESISTANT ALLELES OF AHASL1 AND METHODS OF USE” (NIDERA S.A., priority 2013, published 2015) can be followed below.

Common to all, as to assay: field phytotoxicity trial North Dakota 2006 (Example 3)
Holding throughout (assay type): in vivo, sunflower

Experiment [1] concerns heterozygous A205V/A122T lines. The settings on record: 200 g ai/ha of imazamox, 21 DAT. As for the experimental part: (§1) • Spray volume: 10 gallons per acre (GPA) (or 100 liters/ha) for backpack sprayer or 20 GPA (or 200 liters/ha) for tractor mounted boom • Growth Stage at Herbicide Application: 2-4 leaves • Entry 15 (WT Maintainer line) was left unsprayed in all treatment blocks.
(§2) Phytotoxicity ratings were assessed at 7 and 21 days following herbicide application.
(§3) The data was subjected to an ANOVA analysis and the means from the 3 repetitions are presented in Table 7 (phytotoxicity at 7 days post-treatment) and Table 8 (phytotoxicity at 21 days post-treatment).

Experiment [2] relates to homozygous A122T/A122T lines. The settings on record: 200 g ai/ha of imazamox, 21 DAT. As for the experimental part: as §1, §2, §3
For experiment [3], the system named is homozygous A205V/A205V lines. The settings on record: 200 g ai/ha of imazamox, 21 DAT. As for the experimental part: as §1, §2, §3
The test system of experiment [4] is heterozygous A205V entries. The settings on record: 160 g ai/ha of imazapyr, 21 DAT. As to the method: as §1, §2, §3

With `COCc1cnc(C2=NC(C)(C(C)C)C(=O)N2)c(C(=O)O)c1` (stereo not shown) [imazamox], the phytotoxicity in experiment [1] was 2-3%; in experiment [2], 3-5%; in experiment [3], 15-22%.
Turning to `CC(C)C1(C)N=C(c2ncccc2C(=O)O)NC1=O` (stereo not shown) [imazapyr], the phytotoxicity in experiment [4] was 20-43%.
